# Key:
# bone marrow cells = test: Bone marrow cell proliferation in vitro after in vivo treatment; format: cell-based, mouse (C57BL/6J)
# Method: Bone marrow cells were obtained from the four groups of male C5BL/6J mice described in Section 7.5, supra. […] Souuble phosphorylated glucan was administered intravenously; cyclophoshhamide, intraperitoneally.
# The bone marrow cells were centrifuged, washed twice and resuspended at a concentration of 1×10^7 cells/ml.
# sarcoma M5076 cells = test: Kupffer cell in vitro tumoricidal activity against sarcoma M5076 after in vivo treatment; format: cell-based, mouse (C57BL/6J)
# Method: Thirty two male C57BL/6J mice were divided into four groups of eight each. […] Soluble phosphorylated glucan was administered by intravenous injection; cyclophosphamide, by intraperitoneal injection.
# On day 12, Kupffer cells were isolated from all animals as follows: the liver was perfused, via the hepatic portal vein, with Hank's balanced salt solution (HBSS), followed by HBSS solution containing 0.125% ((w/v) collagenase Type IV (Sigma Chemical Co., St. Louis, Mo.). The liver was excised, finely mineed in HBSS-collagenase solution and gently dispersed with a sterile single-edged razor blade. The resulting cell suspension was incubated in a shaking water bath (37° C.) for 40 minutes. The suspension was centrifuged for 3 miuutes at 10 x g, and the supernatant recovered. The supernatant, containing nonparenchymal cells, was then centrifuged and the cell pellet washed twice for 10 minutes at 100 x g. The cell pellet was suspended in 17.5% (w/v) metrizamide (Accurate Chemical and Scientific Corp., Westbury, N.Y.) in HBSS. […]
# ^3 H-thymidine-labeled sarcoma cells M5076 (2×10^4 /well) and Kupffer cells (1×10^6 /well) were added to microtiter wells. […] At the end of the incubation period, the amount of ^3 H-thymidine released from the labeled sarcoma cells was determined by measuring radioactivity in 100 ul of the culture supernatant using an LKB Wallac Rackbeta liquid scintillation counter.
# peripheral leukocytes = test: Prevention of cyclophosphamide-induced leukopenia; format: in vivo, mouse
# From the text: Forty mice were subdivided into four gooups. Group 1, control mice, received intravenous isotonic glucose. […] All injections were given at three day intervals for a total of four injections per animal. Total leukocyte counts of peripheral blood were made on day 14.
# [1] = system: reticulum cell sarcoma M5076; test: Primary tumor growth, metastasis and survival, reticulum cell sarcoma M5076
# Method: One hundred twenty C57BL/6J mice (Jackson Laboratories, Bar Harbor, Me.) were divided into 4 groups of 30 each. All mice received subcutaneous injection of 1.0×10^4 reticulum cell sarcoma cells M5076. Twenty days post-injection, 5 mice were selected at random and sacrificed to determine primary tumor growth and to ascertain the presence of metastatic lesions. […] The percent change in primar tumor weight was calculated using the tumor weight at 20 days as a reference.
# splenocytes = test: Splenocyte proliferation and response to mitogens after in vivo treatment; format: cell-based, mouse (C57BL/6J)
# Method: Thirty two male C57BL/6J mice were divided into four groups of eight each.
# Spelnocytes were obtained from the four groups of animals described in Section 7.5, supra.
# Erythrocytes were removed by hypotonic lysis. Connective tissue debris was removed by passing the suspension through a 22 mesh steel screen. The cells were washed twice, centrifuged and diluted to 1×10^7 cells/ml. […] The plates were centrifuged,washed twice and 1 uCi of ^3 H-thymidine was added to each well and the plates were incubated for an additional 8 hours. […] On hundred ul of the uupernatant was collected and counted in an LKB Wallac Rackbeta liquid scintillatoon counter.
# E. coli = test: Resistance of normal and immunosuppressed mice to E. coli infection; format: in vivo, mouse (C3H/HeJ) infected with E. coli; settings: corticosteroid-immunosuppressed mice (Group 3)
# From the text: Sixty C3H/HeJ mice were divided into 4 groups of 15 mice each. […] Three days following the last injection, the mice received 2.5×10^7 E. coli bacteria intraperitoneally. Survival was monitored for 15 days post-infection with E. coli.
# C3H/HeJ mice = test: Survival of corticosteroid-immunosuppressed and normal C3H/HeJ mice; format: in vivo, mouse; settings: corticosteroid alone, 1.5 mg s.c. twice weekly
# Method: All mice were treated twice weekly for 5 weeks, and survival was monitored for 60 days. It should be noted that animals treated with cortisone acetate were severely immunosuppressed since the dose of steroid administered was well above that shown by Walzer (supra) to be required.
# rats = settings: i.v. 0.1 to 1.0 mg/kg/day, 9 weeks; cited from earlier work
# dogs = settings: dog, in vivo, cited from earlier work
compound,measurement,setting,value
O=P1(N(CCCl)CCCl)NCCCO1 (stereo not shown) [Cyclophosphamide],3H-Thymidine Uptake (bone marrow),bone marrow cells,818 ± 104 CPM
same,increase of bone marrow cell proliferation compared to control,bone marrow cells; versus control group,81%
same,% 3H-Thymidine Release (Kupffer cells),sarcoma M5076 cells,28 ± 3%
same,cell cytotoxicity versus control,sarcoma M5076 cells; Kupffer cells from treated mice,no significant difference
same,Total Leukocytes,"peripheral leukocytes; day 14, SPG 5 mg/mouse i.v., cyclophosphamide 0.6 mg/mouse i.p. every third day, control 13.8 ± 1.6",6.0 ± 0.8 thousand per cu. mm of blood
same,decrease in total number of peripheral leukocytes,"peripheral leukocytes; versus control, P<0.01",47%
same,Tumor Weight (% of Body Weight) Day 30,"[1]; Day 30, control 12.6, 200 mg/kg SPG, 45 mg/kg cyclophosphamide every 3 days from day 20",8.5 % of Body Weight
same,Initial Mortality Time,[1]; control 27,43 days
same,Median Survival Time,[1]; control 34,51 days
same,Time (Days) 100% Mortality,[1]; control 52,65 days
same,increase of tumor weight (day 20-36),[1]; control 142%,36%
same,survival compared to controls,[1]; in words,significantly enhanced survival (p<0.01)
same,Tumor Weight (% of Body Weight) Day 36,"[1]; mouse, in vivo",8.7 % of Body Weight
same,increase in 3H-thymidine uptake of splenocytes compared to controls,"splenocytes; absence of mitogen, day 12",70%
same,"splenocyte response to mitogens, single regimen","splenocytes; in words, FIG. 7",significantly (p<0.001) enhanced splnnocyte response to all mitogens tested
"CC(=O)OCC(=O)[C@@]1(O)CC[C@H]2[C@@H]3CCC4=CC(=O)CC[C@]4(C)[C@H]3C(=O)C[C@@]21C [corticosteroid, cortisone acetate]",mortality after E. coli infection at 40 hours,E. coli,50%
same,mortality after E. coli infection at 5 days,E. coli,75%
same,survival by day 24,C3H/HeJ mice,12%
Lentinan,toxicity,rats,development of cutaneous lesions and discoloration of the ears suggesting thromboembolic events
same,circulatory collapse upon first injection,dogs; 8 mg/kg,circulatory collapse upon the first injection
same,liver morphology,dogs; iv,"intracytoplasmic material, possibly lentinan, accumulating in liver cells"
same,allergic response,dogs,marked allergic response
